Assay results published in patent US8163740B2, “6-substituted benzoxazines” (Hoffmann-La Roche Inc., priority 2008, dated 2012).

Target: recombinant human 5-HT5A receptor (Homo sapiens, UniProt P47898)
Assay: [3H]LSD radioligand binding assay
Details: [3H]LSD (approximately 1 nM); membranes from HEK-EBNA cells transiently expressing 5-HT5A; Ki by Cheng-Prussoff equation; read-out: Ki
Protocol: A [^3H]LSD radioligand binding assay was used to determine the affinity of the compounds for the recombinant human 5-HT5A receptor, in membranes from transiently (cDNA) expressed 5-HT5A receptors in Human Embryonic Kidney-EBNA (HEK-EBNA) cells. Assay buffer consisted of Tris (50 mM) buffer containing 1 mM EGTA, 10 mM MgCl2 (pH 7.4) and 10 μM pargyline. The binding assay was carried out in 96-well-plates in the presence of [^3H]LSD (approximately 1 nM), approximately 2 μg/well of membrane protein, and 0.5 mg of Ysi-poly-1-lysine SPA beads in a final volume of 200 μl of buffer. Non-specific binding was defined using methiothepin 2 μM. Compounds were tested at 10 concentrations. All assays were conducted in duplicate and repeated at least two times. Assay plates were incubated for 120 min at room temperature before centrifugation. Bound ligand was determined using a Packard Topcount scintillation counter. IC50 values were calculated using a non-linear curve fitting program and Ki values calculated using the Cheng-Prussoff equation.

recombinant human 5-HT5A receptor, sequence (P47898 whole entry): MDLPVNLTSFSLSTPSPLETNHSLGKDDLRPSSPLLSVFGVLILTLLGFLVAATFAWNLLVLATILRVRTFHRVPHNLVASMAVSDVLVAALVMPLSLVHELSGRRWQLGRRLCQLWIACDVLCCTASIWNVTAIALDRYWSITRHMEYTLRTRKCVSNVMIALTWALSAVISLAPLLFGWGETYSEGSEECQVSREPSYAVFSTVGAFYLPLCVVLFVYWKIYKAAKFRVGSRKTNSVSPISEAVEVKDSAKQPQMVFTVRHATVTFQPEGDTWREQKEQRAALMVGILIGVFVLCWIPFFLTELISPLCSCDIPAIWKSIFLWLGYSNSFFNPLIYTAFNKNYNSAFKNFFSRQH

| Structure (SMILES) | Ki [nM] |
| --- | --- |
| COc1ccccc1CNC1=Nc2ccc(NC(=O)CN3CCN(C)CC3)cc2CO1 [Example 26, N-[2-(2-Methoxy-benzylamino)-4H-benzo[d][1,3]oxazin-6-yl]-2-(4-methyl-piperazin-1-yl)-acetamide] | 6.12 |
| COc1ccccc1CNC1=Nc2ccc(NC(=O)CN3CCN(CCO)CC3)cc2CO1 [Example 28, 2-[4-(2-Hydroxy-ethyl)-piperazin-1-yl]-N-[2-(2-methoxy-benzylamino)-4H-benzo[d][1,3]oxazin-6-yl]-acetamide] | 10.2 |
| COc1ccccc1CNC1=Nc2ccc(NC(=O)CN3CCN(C(C)C)CC3)cc2CO1 [Example 29, 2-(4-Isopropyl-piperazin-1-yl)-N-[2-(2-methoxy-benzylamino)-4H-benzo[d][1,3]oxazin-6-yl]-acetamide] | 10.9 |
| O=S(=O)(Nc1ccc2c(c1)COC(N[C@@H]1CCc3ccccc31)=N2)N1CCOCC1 [Example 31, Morpholine-4-sulfonic acid [2-((R)-indan-1-ylamino)-4H-benzo[d][1,3]oxazin-6-yl]-amide] | 4.38 |
| Nc1ccc2c(c1)COC(N[C@@H]1CCCc3ccccc31)=N2 [Example 33, (R)-N^2-(1,2,3,4-Tetrahydro-naphthalen-1-yl)-4H-benzo[d][1,3]oxazine-2,6-diamine] | 7.85 |
| FC(F)(F)c1cccc(Nc2ccc3c(c2)COC(N[C@@H]2CCc4ccccc42)=N3)n1 [Example 35, N^2-(R)-Indan-1-yl-N^6-(6-trifluoromethyl-pyridin-2-yl)-4H-benzo[d][1,3]oxazine-2,6-diamine] | 6.16 |
| O=C(CN1CCOCC1)Nc1ccc2c(c1)COC(N[C@@H]1CCc3ccccc31)=N2 [Example 37, N-[2-((R)-Indan-1-ylamino)-4H-benzo[d][1,3]oxazin-6-yl]-2-morpholin-4-yl-acetamide] | 8.74 |
| O=C(CN1CCOCC1)Nc1ccc2c(c1)COC(N[C@@H]1CCCc3ccccc31)=N2 [Example 39, 2-Morpholin-4-yl-N-{2-[(R)-(1,2,3,4-tetrahydro-naphthalen-1-yl)amino]-4H-benzo[d][1,3]oxazin-6-yl}-acetamide] | 22.8 |
| COCCNCC(=O)Nc1ccc2c(c1)COC(N[C@@H]1CCCc3ccccc31)=N2 [Example 40, 2-(2-Methoxy-ethylamino)-N-{2-[(R)-(1,2,3,4-tetrahydro-naphthalen-1-yl)amino]-4H-benzo[d][1,3]oxazin-6-yl}-acetamide] | 33 |

Stronger by Ki, values ahead:

| Ki [nM] | Structure (SMILES) |
| --- | --- |
| 2.98 | COc1ccccc1CNC1=Nc2ccc(NC(=O)C3CC3)cc2CO1 [Example 7, Cyclopropanecarboxylic acid [2-(2-methoxy-benzylamino)-4H-benzo[d][1,3]oxazin-6-yl]-amide] |
| 0.83 | O=C(Nc1ccc2c(c1)COC(N[C@@H]1CCc3ccccc31)=N2)C1CC1 [Example 18, Cyclopropanecarboxylic acid [2-((R)-indan-1-ylamino)-4H-benzo[d][1,3]oxazin-6-yl]-amide] |
| 4.1 | COCC(=O)Nc1ccc2c(c1)COC(N[C@@H]1CCc3ccccc31)=N2 [Example 19, N-[2-((R)-Indan-1-ylamino)-4H-benzo[d][1,3]oxazin-6-yl]-2-methoxy-acetamide] |
| 2.36 | CN(C)S(=O)(=O)Nc1ccc2c(c1)COC(N[C@@H]1CCc3ccccc31)=N2 [Example 27, N,N-(Dimethyl)-N′-{2-((R)-indan-1-ylamino)-4H-benzo[d][1,3]oxazin-6-yl}-sulfamide] |
| 4.2 | O=S(=O)(Nc1ccc2c(c1)COC(N[C@@H]1CCc3ccccc31)=N2)N1CCCCC1 [Example 30, Piperidine-1-sulfonic acid [2-((R)-indan-1-ylamino)-4H-benzo[d][1,3]oxazin-6-yl]-amide] |
| 3.16 | CN1CCN(CC(=O)Nc2ccc3c(c2)COC(N[C@@H]2CCCc4ccccc42)=N3)CC1 [Example 38, 2-(4-Methyl-piperazin-1-yl)-N-{2-[(R)-(1,2,3,4-tetrahydro-naphthalen-1-yl)amino]-4H-benzo[d][1,3]oxazin-6-yl}-acetamide] |
